Like-named read-outs stand apart in the source and are kept apart here.
Columns and labels:
MC3T3-E1 cells = experiment: Osteoblast activation, ALP activity in MC3T3-E1; type: cell-based, mouse
Protocol: MC3T3-E1 cells ((IAA) the Institution of Physical and Chemical Research), osteoblast-like cell line derived from the mouse fetus cranial bone cells, were inoculated into the 96 well plate at 4,000 cells/well. As a medium, the basal medium prepared in the Example 3 supplemented with fargesin at 2 to 80 μM was used. Pre-culture was performed by using the basal medium only under the conditions of 5% CO2 and 37 degree centigrade for 3 days. After that, the conditioned medium was changed to fresh medium with fargesin; the culture was performed under the conditions of 5% CO2 and 37 degree centigrade for 3 days. On the day 4 from the culture start, the conditioned medium was changed to the fresh medium; the culture was further performed under the conditions of 5% CO2 and 37 degree centigrade for 3 days. After the termination of the culture, the following MTT test, measurement of ALP activities, and the staining were performed.
Measurement of the ALP activity, statistical processing of the data, and the observation of differentiated cells were performed as the same way as those in Example 3, except the staining of the osteoclast cells were omitted.

[1] = system: BMCs and UAMS-32 cells co-culture; experiment: Differentiation of osteoblast and osteoclast in co-culture (ALP and TRAP activity); type: cell-based, mouse; settings: for activity at 2 µM / activity at 6 µM / activity at 20 µM / activity at 60 µM / activity at 80 µM: Mus musculus, 120 h, 5 days co-culture, negative control = 100%
Protocol: Four-week-old ddY male mice (Japan SLC, Inc.) were killed by the cervical dislocation, and then, the long bones of left and right lower extremities were excised with muscles. All of the muscles were removed from the bones, and the femurs and shinbones were obtained. The both ends of the obtained femurs and shinbones were scraped a little by a little. The cells in the bone morrow were pushed out into the following medium by using a 2.5 ml of syringe with a needle (22G×1¼; Thermo corporation). After that, contaminants were eliminated through a filter ([…] Nylon Cell Strainer; Japan Becton, Dickinson and Company) to obtain more than 2×10^8 cells of BMCs.
Osteoblast-like cells, UAMS-32 cells, were purchased from the Institution of Physical and Chemical Research (Japan).
In order to prepare the basic medium, 10.2 g of α-MEM (powder, Life Technologies Japan Corporation (GIBCO)) was dissolved in 1 L of purified water and 2.2 g/l (w/v) of sodium bicarbonate was added. Then, it was filtered through a sterilized filter of which pore diameter was 0.22 μm (Nihon Millipore K. K). Further, the basic mediums were supplemented with 10% (v/v) fetal bovine serum (FBS) (Sigma, heat-inactivated for 30 minutes at 56° C.).
In this example, 1 μM of PGE2 and 10 nM of Vitamin D3 (both from Wako Pure Chemical Industries, Ltd.) were added to the medium to prepare a co-culture medium. By using the co-culture medium, cell suspensions of BMCs and UAMS-32 obtained as mentioned above were prepared. For the test group, 2 to 80 μM of fargesin was added, and for the negative control group, DMSO was added so as to be 0.3% of the final concentration.
BMCs were plated at the concentration of 2×10^6 cells/well, and UAMS-32 cells were plated at the concentration of 1×10^5 cells/well in each well of the 96 well plates, respectively. Then, the cells were co-cultured in the co-culture medium under the conditions of 5% CO2 and 37 degree centigrade for 5 days. The medium were changed on the 3rd days from the culture start. After cells were fixed as described in below, alkaline phosphatase (ALP) activity was measured as the index of osteoblast differentiation; tartrate-resistant acid phosphatase activity was measured as the index of osteoclast differentiation.
The cells were cultured under the above-mentioned conditions, 10% formalin aqueous solution was added into each well still standing for 10 minutes, and then ethanol was added still standing for further 1 minute to fix the cells. In order to measure TRAP activity, 10 mM sodium tartrate/50 mM citric acid buffer solution containing 1.36 mg of p-nitrophenyl sodium phosphate (Sigma-Aldrich Co. LLC.) (pH 4.6) was prepared as a substrate solution for TRAP. The substrate solution for TRAP was added to the well at the volume of 100 μl/well, and reacted for 15 to 20 minutes at a room temperature. The reaction solution was transferred into another 96 well plate, to which 100 μl/well of 0.1N NaOH was previously added to stop the reaction, and they were measured at absorbance of 405 nm.
50 mM sodium tartrate/0.1 M of sodium acetate buffer (pH 5.0) including 0.1 mg/ml naphthol AS-MX phosphate (sigma N-4875) and 0.6 mg/ml Fast red violet LB salt (both from Sigma-Aldrich Japan Co. LLC.) was prepared as TRAP staining solution. The TRAP staining solution was added to the wells to stain the cells in negative control group till they took on red color under room temperature. After that, the cells were washed with distilled water. The cells stained red and having not less than two nuclei was decided as multinuclear osteoclast, of which number was counted by using the microscope.
After the cells were cultured under the conditions, 100 μl/well of methanol cooled to −20 degree centigrade was added into the cells and stood for further 1 minute to fix the cells. […]

With COc1ccc([C@@H]2OC[C@H]3[C@@H]2CO[C@@H]3c2ccc3c(c2)OCO3)cc1OC [fargesin, Fargesin] the “ALP stained image of osteoblast-like cells” value (MC3T3-E1 cells; 60 to 80 μM, MC3T3-E1) was “many osteoblast stained in blue were observed”, the activity at 2 µM (MC3T3-E1 cells; Mus musculus, 2 μM, MC3T3-E1, negative control = 100) was 82.8 ± 8% and the activity at 6 µM (MC3T3-E1 cells; Mus musculus, 6 μM, MC3T3-E1, negative control = 100) was 89.8 ± 9.8%. For the same compound, the activity at 20 µM (MC3T3-E1 cells; Mus musculus, 20 μM, MC3T3-E1, negative control = 100) was 99.8 ± 13.4%, the activity at 60 µM (MC3T3-E1 cells; Mus musculus, 60 μM, MC3T3-E1, negative control = 100) was 180 ± 31.5% and the activity at 80 µM (MC3T3-E1 cells; Mus musculus, 80 μM, MC3T3-E1, negative control = 100) was 167 ± 32.7%. For the same compound, the “cells differentiated to the osteoclast, ALP and TRAP double staining” value ([1]; 60 to 80 μM, co-culture) was “rarely observed”, the activity at 2 µM ([1]; read-out: ALP activity (%)) was 113 ± 15.7% and the activity at 2 µM ([1]; read-out: TRAP activity (%)) was 89.5 ± 5.4%. The activity at 6 µM ([1]; read-out: ALP activity (%)) was 120 ± 10.1%, the activity at 6 µM ([1]; read-out: TRAP activity (%)) was 88.7 ± 7.2% and the activity at 20 µM ([1]; read-out: ALP activity (%)) was 146 ± 14.4%. It also gave an activity at 20 µM ([1]; read-out: TRAP activity (%)) of 74.4 ± 8.5%, an activity at 60 µM ([1]; read-out: ALP activity (%)) of 164 ± 14% and an activity at 60 µM ([1]; read-out: TRAP activity (%)) of 42.4 ± 7.1%. For the same compound, the activity at 80 µM ([1]; read-out: ALP activity (%)) was 199 ± 14.6% and the activity at 80 µM ([1]; read-out: TRAP activity (%)) was 35.7 ± 5.6%.

From patent US20130253048A1, “Pharmaceutical Composition for Promoting Osteogenesis Containing Axial-equatorial Aryl-oriented Furofuran-type Lignan, and Pharmaceutical Preparation, Functional Food Product, and Health Food Product Comprising Composition” (ERINA CO., INC., priority 2010, published 2013)
